Source: patent US20040248195A1, “Uses of a thyx polypeptide or a nucleic acid encoding such a polypeptide, in particular for screening anti-bacterial or anti-viral compounds” (priority 2001, published 2004)

What was measured:
[1] = biological target: T1, ThyX protein of H. pylori (Helicobacter pylori, UniProt O26061); test: Tritium release from [5-3H]dUMP by purified ThyX (thymidylate synthase activity); assay type: biochemical; conditions: for inhibition of ThyX activity: result in words
T1 construct: made in house
T1 sequence (O26061 whole entry): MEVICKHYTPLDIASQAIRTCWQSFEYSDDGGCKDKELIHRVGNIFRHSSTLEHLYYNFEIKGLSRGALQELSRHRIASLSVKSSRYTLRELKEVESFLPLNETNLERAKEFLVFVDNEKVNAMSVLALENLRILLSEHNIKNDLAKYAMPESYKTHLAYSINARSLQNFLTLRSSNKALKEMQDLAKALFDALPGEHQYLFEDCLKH
Text: In dTMP formation, the loss of tritium from […] in the solvent is a compulsory intermediary, allowing to quantify the thymidylate-synthetase activity after removal of radioactive nucleotides from the reaction mixtures (ROBERTS, 1966). In order to tackle the biochemical mechanism, wherein ThyX could circumvent the requirement for the ThyA in the de novo synthesis of thymydilate, the purified ThyX protein was used to the same extent.
N^5,N^10—CH2H4folate was non-enzymatically formed, through incubation of 2 mM of tetrahydrofolic acid (Sigma®) with 100 mM of β-mercaptoethanol and 20 mM of formol for 30 minutes in the dark and at room temperature. […] The control reactions were achieved under analogous conditions, without tetrahydrofolic acid. […], a specific activity at 16,2 Ci/mmol (Amersham) and stopped after 60 minutes at 37° C. by two extractions with 250 μl of active carbon [10% (weight/volume) of Norit A] in 2% trichloroacetic acid so as to remove the nucleotides from the reaction mixtures. The remanent radioactivity in the supernatant was determined according to MYLLYKALLIO (2000).

[2] = tested on: transformants containing thyX in the E.coli X2913(ΔthyA) strain; conditions: only high trimethoprim concentrations inhibit

## Nc1nc2c(c(=O)[nH]1)N1CN(c3ccc(C(=O)N[C@@H](CCC(=O)O)C(=O)O)cc3)CC1CN2 (stereo partly shown) [CH2H4folate]
[1]; complete reaction conditions, 60 minutes incubation
  concentration sufficient for saturating the release activity of tritium: 100 µM

## O=c1ccn([C@@H]2O[C@H](COP(=O)(O)O)[C@@H](O)[C@H]2O)c(=O)[nH]1 [UMP]
[1]; complete test plus 500 μM of the added nucleotide, 9 μM 3H-dUMP, 60 minute incubation
  nmol of released ^3H/mg of protein (60 minute incubation): 64.4 nmol of released ^3H/mg of protein
[1]; complete test plus 500 μM of the added nucleotide, complete = 100%, 60 minute incubation
  released ^3H as % of the complete test: 102.2%
[1]; simple competition experiments
  use as substrate by the ThyX activity (competition experiments): does not use UMP as a substrate

## Cc1cn([C@H]2C[C@H](O)[C@@H](COP(=O)(O)O)O2)c(=O)[nH]c1=O [dTMP, thymidine 5′-monophosphate]
[1]
  inhibition of ThyX activity: inhibited

## O=c1[nH]c(=O)n([C@H]2C[C@H](O)[C@@H](COP(=O)(O)O)O2)cc1F [fluoro-dUMP]
[1]
  inhibition of ThyX activity: inhibitor

## COc1cc(Cc2cnc(N)nc2N)cc(OC)c1OC [trimethoprim]
[2]
  inhibition of growth of thyX transformants: inhibited
